Test results reported in patent US9434711B2 (Janssen Pharmaceutica, NV, priority 2007, dated 2016).
Where two headings read alike, the source gives them in different places.

What was measured:
canine TRPM8 [1] = biological target: T1, canine TRPM8 (Canis lupus familiaris, UniProt Q1A7N1); assay: In Vitro Canine TRPM8 Functional Assay (Ca2+ fluorescence, icilin activation); type: cell-based; details: for IC50: HEK293 cells stably expressing canine TRPM8, icilin activation, eight-point dose-response, read-out: IC50; for inhibition at 0.2 µM: compound at 0.2 μM, canine TRPM8, icilin activation, read-out: % Inh @ 0.2
T1 sequence (Q1A7N1 1-1104): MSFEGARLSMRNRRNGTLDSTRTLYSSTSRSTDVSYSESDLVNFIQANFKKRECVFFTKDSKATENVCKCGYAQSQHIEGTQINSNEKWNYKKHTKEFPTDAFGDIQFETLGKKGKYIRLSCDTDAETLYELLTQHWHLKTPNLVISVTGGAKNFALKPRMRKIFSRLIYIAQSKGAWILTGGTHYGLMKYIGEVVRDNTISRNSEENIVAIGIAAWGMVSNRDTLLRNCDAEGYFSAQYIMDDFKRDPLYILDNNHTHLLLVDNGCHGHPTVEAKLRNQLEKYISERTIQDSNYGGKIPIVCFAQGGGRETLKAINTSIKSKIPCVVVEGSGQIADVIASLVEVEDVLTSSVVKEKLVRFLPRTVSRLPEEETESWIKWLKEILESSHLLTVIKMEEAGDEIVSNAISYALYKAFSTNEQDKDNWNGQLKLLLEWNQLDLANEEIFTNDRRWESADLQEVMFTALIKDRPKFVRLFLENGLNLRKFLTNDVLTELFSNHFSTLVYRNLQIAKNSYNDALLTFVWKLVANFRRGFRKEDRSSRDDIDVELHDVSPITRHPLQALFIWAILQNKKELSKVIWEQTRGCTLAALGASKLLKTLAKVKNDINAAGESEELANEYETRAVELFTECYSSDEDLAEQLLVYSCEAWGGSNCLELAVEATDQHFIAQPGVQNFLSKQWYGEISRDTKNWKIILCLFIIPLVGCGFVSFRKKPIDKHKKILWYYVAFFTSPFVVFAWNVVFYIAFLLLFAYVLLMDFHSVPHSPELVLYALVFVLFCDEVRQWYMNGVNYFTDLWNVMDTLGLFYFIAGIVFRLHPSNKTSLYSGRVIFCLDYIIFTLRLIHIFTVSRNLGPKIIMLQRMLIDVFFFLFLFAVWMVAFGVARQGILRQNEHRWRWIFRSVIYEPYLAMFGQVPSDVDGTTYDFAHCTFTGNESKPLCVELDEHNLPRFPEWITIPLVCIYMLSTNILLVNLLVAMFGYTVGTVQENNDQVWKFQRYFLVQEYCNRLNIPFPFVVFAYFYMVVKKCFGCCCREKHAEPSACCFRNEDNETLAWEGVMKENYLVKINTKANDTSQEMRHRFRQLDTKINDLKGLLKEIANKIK
Outline: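 Eight-point dose-response curves, each point averaging quadruplicate wells, gave EC50 or IC50. Canine TRPM8-expressing HEK293 cells, dye-loaded (Calcium 3), were pre-exposed 5 min to compound, then challenged with icilin at roughly EC80; intracellular Ca2+ read by FLIPR or FDSS fluorescence.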

human TRPM8 = human TRPM8 (Homo sapiens (Human), UniProt Q7Z2W7); assay: In Vitro Human TRPM8 Functional Assay (Ca2+ fluorescence, icilin EC80); type: cell-based; details: read-out: hTRPM8 IC50
human TRPM8, sequence (Q7Z2W7 whole entry): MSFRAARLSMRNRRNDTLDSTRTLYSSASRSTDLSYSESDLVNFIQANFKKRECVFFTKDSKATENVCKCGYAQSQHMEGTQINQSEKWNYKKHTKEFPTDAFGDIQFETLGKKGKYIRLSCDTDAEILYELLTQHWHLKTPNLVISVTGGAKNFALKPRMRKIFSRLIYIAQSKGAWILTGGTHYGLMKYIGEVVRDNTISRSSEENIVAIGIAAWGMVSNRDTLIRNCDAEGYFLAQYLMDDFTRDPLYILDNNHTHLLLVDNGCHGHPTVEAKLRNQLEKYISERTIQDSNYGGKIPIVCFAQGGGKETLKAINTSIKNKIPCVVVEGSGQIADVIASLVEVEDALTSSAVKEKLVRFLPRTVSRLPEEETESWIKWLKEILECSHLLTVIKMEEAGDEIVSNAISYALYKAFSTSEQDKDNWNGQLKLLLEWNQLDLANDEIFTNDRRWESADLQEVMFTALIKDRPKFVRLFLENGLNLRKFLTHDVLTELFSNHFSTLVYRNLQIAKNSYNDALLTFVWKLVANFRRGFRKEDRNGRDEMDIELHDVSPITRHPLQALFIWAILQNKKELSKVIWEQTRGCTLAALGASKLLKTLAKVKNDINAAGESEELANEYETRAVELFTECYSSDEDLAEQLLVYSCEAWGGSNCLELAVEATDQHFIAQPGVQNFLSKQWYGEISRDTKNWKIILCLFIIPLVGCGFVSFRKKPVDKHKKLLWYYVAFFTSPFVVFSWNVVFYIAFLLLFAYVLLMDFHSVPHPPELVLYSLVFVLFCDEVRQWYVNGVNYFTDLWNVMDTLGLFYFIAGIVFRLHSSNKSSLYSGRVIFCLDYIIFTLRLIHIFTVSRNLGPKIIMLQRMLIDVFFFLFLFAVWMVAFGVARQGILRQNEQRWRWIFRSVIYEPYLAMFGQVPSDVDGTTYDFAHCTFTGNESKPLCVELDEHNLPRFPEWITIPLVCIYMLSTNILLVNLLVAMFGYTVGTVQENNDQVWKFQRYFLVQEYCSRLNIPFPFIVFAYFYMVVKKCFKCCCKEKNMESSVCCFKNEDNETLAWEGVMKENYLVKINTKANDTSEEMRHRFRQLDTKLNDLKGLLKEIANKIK
Method: HEK293 cells are routinely grown as monolayer in Dulbecco's minimum essential medium supplemented with 10% FBS, 1 mM L-glutamine, 100 units/mL penicillin and 100 ug/mL streptomycin. Cells are maintained in 5% CO2 at 37° C.
For functional expression of TRPM8, the full-length cDNA encoding human and rat TRPM8 are subcloned into pCI-NEO mammalian expression vectors. The expression constructs are transiently transfected into HEK293 cells according to the FuGENE 6 Transfection Reagent® (ROCHE) instructions. Within twenty-four hours, transiently transfected cells are harvested and either seeded directly into assay plate or cryopreserved for future usage. […]
Maximal fluorescence intensity (FI) achieved upon addition of icilin is exported from the FDSS and further analyzed using GraphPad Prism 3.02 (Graph Pad Software Inc., CA, U.S.A.) where data is normalized to percent of maximal response. The dose response curves from the average of quadruplicate wells for each data point are analyzed by using nonlinear regression of either sigmoidal dose response or sigmoidal dose response (variable slope). Finally, the IC50 values are calculated with the best-fit dose curve determined by Prism.

canine TRPM8 [2] = biological target: T1, canine TRPM8; assay: TRPM8 Patch Clamp Assays (whole-cell, menthol or cold activation); type: cell-based
Method: For patch clamp experiments, HEK293 cells are stably transfected with canine TRPM8 and cultured in DMEM supplemented with 10% fetal bovine serum, 100 units/ml penicillin, 100 μg/ml streptomycin and 1 mg/ml G418. Cells are maintained at 37° C. and in 5% CO2.
The extracellular solution contains (in mM): NaCl, 132; EGTA, 1; KCl, 5.4; MgCl2, 0.8; HEPES, 10; glucose, 10; pH=7.4. Recordings are performed using the conventional whole-cell patch clamp technique, 1-2 days after plating cells onto glass coverslips at densities appropriate for single cell recording. Currents are amplified by a patch clamp amplifier and filtered at 2 kHz (Axopatch 200B, Molecular Devices, Union City, Calif.). Menthol (100 μM) is applied to the cell at 0.5 ml/min via a gravity-fed perfusion system. Recordings involving menthol activation are performed at 22° C.
In experiments where temperatures are varied, temperature ramps are generated by cooling the perfusate in an in-line cooler (Model SC-20, Warner Instruments, Hamden, Conn.) controlled by a temperature controller (Model CL-100, Warner Instruments). The temperature in the vicinity of the recorded cell is measured with a custom-made miniature thermo-microprobe connected to a monitoring thermometer (Model TH-8, Physitemp, Clifton, N.J.), and sampled using Digidata 1322A and pClamp 9.0 (Molecular Devices), as are the currents concurrently measured in the whole-cell patch clamp mode. The current is continuously sampled (at 100 Hz) at a holding potential of −60 mV.
Compounds of the formula (I) are diluted from 10 mM DMSO stocks (stored at −20° C.) into an extracellular solution either containing 100 μM menthol or subjected to cooling. Increasing concentrations of a compound are applied to a cell in a cumulative manner and concentration-dependent responses are measured after steady-state activation is achieved by either 100 μM menthol or cooling to 10° C. A saturating concentration of a reference antagonist is applied at the end of an experiment (either in the presence of 100 μM menthol or 10° C. temperature) to establish the baseline from which all the other measurements are subtracted.
Percentage inhibition by a compound is calculated as follows:
100×(1−Icomp/I0); where Icomp and I0 are steady-state current amplitudes in either the presence or absence of a concentration of compounds of the formula (I).

male Sprague-Dawley rats = assay: Rat Carrageenan-Induced Radiant Heat Hypersensitivity; type: in vivo; details: dose 30 p.o., HPbCD, Na salt form
Method: Intraplantar injection of carrageenan into the hind paw of rats causes a robust acute inflammatory response characterized by reddening, swelling and hypersensitivity of the paw to thermal and mechanical stimuli typically peaking 3-6 hours following application and subsiding over the 12-24 hours.
To assess the effect of test compounds of the formula (I) on inflammatory hyperalgesia radiant heat response latencies were evaluated 3 hours following intraplantar carrageenan (Lambda, Type IV, 200 uL) injection into a single hind paw in male Sprague-Dawley rats. The test compound was administered either 2 hours prior to or 1 hour following carrageenan injection. The intent was to determine whether the compound would prevent or retard the hypersensitivity associated with this inflammogen. Baseline thermal response latencies were determined prior to any treatment and again 3 hours after carrageenan injection. Percent reversal of hyperalgesia relative to vehicle treatment (% R) was calculated for both compound treatment paradigms according to the following formula and is depicted in Table 8: % R=(Post compound latency−Post vehicle latency)/((Baseline latency−Post vehicle latency)×100%

[3] = treatment 1 hour relative to Cg
[4] = treatment −2 hours relative to Cg

Row | IC50 (canine TRPM8 [1]) | inhibition at 0.2 µM (canine TRPM8 [1]) | IC50 (human TRPM8; Freshly transfected cells) | IC50 (canine TRPM8 [2]; cold stimulation) | inhibition at 0.001 µM (canine TRPM8 [2]; cold stimulation) | inhibition at 0.003 µM (canine TRPM8 [2]; cold stimulation) | inhibition at 0.01 µM (canine TRPM8 [2]; cold stimulation) | inhibition at 0.03 µM (canine TRPM8 [2]; cold stimulation, 0.03 μM) | IC50 (canine TRPM8 [2]; menthol stimulation) | inhibition at 0.0003 µM (canine TRPM8 [2]; menthol stimulation) | inhibition at 0.001 µM (canine TRPM8 [2]; menthol stimulation) | inhibition at 0.003 µM (canine TRPM8 [2]; menthol stimulation) | inhibition at 0.01 µM (canine TRPM8 [2]; menthol stimulation) | IC50 (human TRPM8; Cryopreserved cells) | inhibition at 0.0003 µM (canine TRPM8 [2]; cold stimulation) | inhibition at 0.0001 µM (canine TRPM8 [2]; menthol stimulation, 0.0001 μM) | Compound | Percent Reversal, relative to vehicle (male Sprague-Dawley rats; [3]) | Percent Reversal, relative to vehicle (male Sprague-Dawley rats; [4])
1 | 0.8 nM | 102% | 4 nM | 2.3 nM | 22.4% | 60.1% | 86.2% | 97.3% | 1.1 nM | 11.6% | 47.3% | 78% | 94.9% |  |  |  | Cc1c(N(Cc2ccc(F)c(C(F)(F)F)c2)S(=O)(=O)c2ccc(C(=O)O)cc2)sc2ccccc12 [Compound 306, N-(3-Methyl-benzo[b]thiophen-2-yl)-N-(4-fluoro-3-trifluoromethyl-benzyl)-4-carboxy-benzenesulfonamide] | 100% | 64%
2 | 0.8 nM | 101% |  | 0.554 nM | 77.7% | 96.4% |  |  | 0.183 nM | 68.6% | 95.8% | 99.6% |  | 1.4 nM | 21.6% | 27.5% | Cc1c(N(Cc2ccc(OC(F)(F)F)cc2)S(=O)(=O)c2ccc(C(=O)O)cc2)sc2ccccc12 [Compound 496, N-(3-Methyl-benzo[b]thiophen-2-yl)-N-(4-trifluoromethoxy-benzyl)-4-carboxy-benzenesulfonamide] | 106% | 74%
